Laboratory results taken from a melting point compilation (Tetko et al.; mined from patent text by program, amines drawn as free bases though some values may be those of a salt).

Question: With `O=C(O)c1cccc2nc3cc(Br)ccc3nc12` as the molecule, how does the melting point read?
Answer: 268 to 269 °C

Question: Which melting point does the source give for `CC(C)c1cccc(C(C)C)c1NC(=O)N(Cc1ccc(N(C)C)cc1)c1ccc(Cl)cc1` here?
Answer: 151 to 152 °C

Question: For `O=C1CCC(c2ccc3[nH]c(C(=O)O)cc3c2)=NN1`, which melting point is on record?
Answer: 185 to 187 °C

Question: Which melting point does the source give for `Cn1ncc2c1-c1c(Oc3ccc(OCc4ccc5ccccc5n4)cc3)sc(C(=O)O)c1CC2` here?
Answer: 214 to 215 °C

Question: Which melting point does the source give for `CN(C)C(=O)COc1ccc2c(-c3ccc(Br)cc3)nsc2c1` here?
Answer: 159 °C

Question: Which melting point does the source give for `CCCc1n[nH]c(C(N)=O)c1N` here?
Answer: 196 to 201 °C

Question: For `CC(=O)Oc1c2cc(C(F)(F)F)c(C(F)(F)F)cc2c(OC(C)=O)c2cc3ccccc3cc12`, which melting point is on record?
Answer: 149 to 153 °C

Question: Which melting point does the source give for `CC(C)(CCC(=O)N[C@H](Cc1ccc(-c2ccccc2)cc1)C(=O)NCCCCNc1ncccn1)C(=O)O` here?
Answer: 85 to 98 °C

Question: Which melting point does the source give for `Cc1ccccc1C1CCN(C2CCCCC2O)CC1` (single isomer, unassigned; (-)) here?
Answer: 116 to 118 °C

Question: For `CCC(C(CC(=O)OC)c1ccc(Cl)cc1Cl)[N+](=O)[O-]` (stereo unspecified), which melting point is on record?
Answer: 234 to 237 °C

Question: With `c1cc(-c2ccc(OCCCN3CCCCC3)cc2)ccc1CN1CCCCC1` as the molecule, how does the melting point read?
Answer: 90 °C

Question: Which melting point does the source give for `CCc1c(OC)nc2nc(C(N)=O)cn2c1C` here?
Answer: 256 to 259 °C

Question: Which melting point does the source give for `Brc1ccc(N2CCOCC2)cc1` here?
Answer: 118 to 120 °C

Question: For `Cc1c(N2CC3(CC3)[C@](C)(N)C2)ccc2c(=O)c(C(=O)O)cn([C@@H]3C[C@@H]3F)c12`, which melting point is on record?
Answer: 157 to 159 °C

Question: Which melting point does the source give for `CCOc1nc2cccc(C(=O)OC)c2n1Cc1ccc(-c2ccccc2C(N)=O)cc1` here?
Answer: 198 to 199 °C

Question: With `CCCCCCCc1ccc(-c2cnc(-c3ccc(OCCCCCC)c(F)c3)nc2)cc1` as the molecule, how does the melting point read?
Answer: 80.5 °C

Question: With `CON=Cc1nc(C)n2c1CN=C(c1ccccc1)c1cc(Cl)ccc1-2` as the molecule, how does the melting point read?
Answer: 193 to 195 °C

Question: With `C=Cc1cc2c(cc1Cl)C=C(C(=O)O)C(C(F)(F)F)O2` (stereo unspecified) as the molecule, how does the melting point read?
Answer: > 200 °C

Question: For `COc1cc(C=O)c(Cl)c(Cl)c1OC`, which melting point is on record?
Answer: 120 to 123 °C

Question: With `CCCCc1nnc(SCC(=O)OC)n1Cc1ccc(NC(=O)c2ccccc2C(=O)O)cc1` as the molecule, how does the melting point read?
Answer: 161 to 162 °C

Question: Which melting point does the source give for `C=CC(CCc1ccccc1)NC(=O)OC(C)(C)C` (stereo unspecified) here?
Answer: 53 °C

Question: With `CC(=O)c1ccc(OCC(O)COc2ccc(C#N)cc2)cc1O` (stereo unspecified) as the molecule, how does the melting point read?
Answer: 162 to 163 °C

Question: Which melting point does the source give for `COC(=O)c1ccc(CNC(C)=O)cc1` here?
Answer: 110 to 111 °C

Question: For `Cc1cccc2c(=O)n(C)c(-c3ccc(OC4CCN(C5CCC5)CC4)cc3)nc12`, which melting point is on record?
Answer: 152 to 154 °C

Question: With `CCOC(=O)C1=C(C)NC(C#N)=C(C(=O)OCC)C1c1ccccc1/C=C/C(=O)OC(C)(C)C` (stereo unspecified) as the molecule, how does the melting point read?
Answer: 146 to 147 °C

Question: With `CON=C1CCC(C)(C)c2cc(C)c(-c3cc(C=C4SC(=O)NC4=O)ccc3N(C)C)cc21` as the molecule, how does the melting point read?
Answer: 254 to 256 °C

Question: For `COc1ccc(OC)c(-c2cn(N=Cc3ccccc3)c(N)n2)c1`, which melting point is on record?
Answer: 180 to 181 °C

Question: With `CC(=O)SCC(CCc1cccc(C)c1)C(=O)O` (stereo unspecified) as the molecule, how does the melting point read?
Answer: 52 to 54 °C

Question: For `O=C(O)Cc1ccc(OCCNCC(O)c2ccccc2)cc1` (stereo unspecified), which melting point is on record?
Answer: 183 to 184 °C

Question: With `Cc1cc2c(-c3ccccc3F)nc(=O)n(C)c2s1` as the molecule, how does the melting point read?
Answer: 119 to 121 °C

Question: For `COc1ccc(-c2ccc3c(F)c(OC)ccc3c2)cc1`, which melting point is on record?
Answer: 150 to 155 °C

Question: For `C#Cc1cnn2c(C(F)F)cc(-c3ccc(Cl)c(C)c3)nc12`, which melting point is on record?
Answer: 143 °C

Question: Which melting point does the source give for `CC(=O)NC(CCc1ccc(C=O)cc1)(COC(C)=O)COC(C)=O` here?
Answer: 98 to 100 °C

Question: With `CCOC(=O)Nc1cc2c(c(N)n1)N=C(c1ccccc1)[C@@H](C)N2` as the molecule, how does the melting point read?
Answer: 148 to 151 °C

Question: Which melting point does the source give for `CCc1cccc(CC)c1NC(=O)NC(c1ccccc1)c1ccccc1` here?
Answer: 238 to 240 °C

Question: Which melting point does the source give for `CC12CCC(C1)C1(C)Oc3ccc(C(=O)Oc4ccc(C(=O)OCc5ccccc5)cc4)cc3C21C` (stereo unspecified) here?
Answer: 131 to 133 °C

Question: Which melting point does the source give for `COc1ccc(S(=O)(=O)N2C(=O)C(N)(c3ccccc3Cl)c3cc(Cl)ccc32)c([N+](=O)[O-])c1` (stereo unspecified) here?
Answer: 192 to 195 °C

Question: For `CCOC(=O)C(Cc1ccccc1)(C(=O)Nc1ccc(Cl)cc1)c1ccccc1` (stereo unspecified), which melting point is on record?
Answer: 83 to 85 °C

Question: With `CN1CC=C(C2=Cc3ccccc3Oc3ccc(Br)cc32)CC1` as the molecule, how does the melting point read?
Answer: 144 to 146 °C

Question: With `COc1cc2ncc(C#N)c(Sc3cccc(Br)c3)c2cc1OC` as the molecule, how does the melting point read?
Answer: 173 to 175 °C

Question: With `O=C(O)c1cc(=O)c(Sc2ccccc2)co1` as the molecule, how does the melting point read?
Answer: 178 to 181 °C

Question: Which melting point does the source give for `CN(C(=O)CN(C(=O)CNC(=O)OC(C)(C)C)c1ccccc1O)c1ccccc1` here?
Answer: 185 to 188 °C

Question: With `COC1CN(C(=O)Nc2ccc(C(F)(F)F)cc2)N=C1c1ccc(Cl)cc1` (stereo unspecified) as the molecule, how does the melting point read?
Answer: 185 to 186 °C

Question: For `O=C1CC2CCc3ccncc3C2=NN1c1ccc(C(F)(F)F)cc1` (stereo unspecified), which melting point is on record?
Answer: 141 to 142 °C

Question: With `CCOC(=O)CCC(=O)c1ccc(Cl)cc1OCC(O)CNC(C)(C)C` (stereo unspecified) as the molecule, how does the melting point read?
Answer: 70 °C

Question: Which melting point does the source give for `O=C(O)CCC(=NO)c1ccc(-c2ccc(Br)cc2F)cc1` here?
Answer: 163 to 164 °C

Question: With `COC(=O)c1ccccc1-n1c(CCl)nc2ccc(Br)cc2c1=O` as the molecule, how does the melting point read?
Answer: 235 to 237 °C

Question: For `O=c1ccn(-c2cccc(C(F)(F)F)c2)nc1-c1ccnn1-c1ccccn1`, which melting point is on record?
Answer: 189 to 190 °C

Question: For `CCN1CCN(C(=O)OC2C3=C(SCCS3)C(=O)N2c2ccc(Cl)cn2)CC1` (stereo unspecified), which melting point is on record?
Answer: 140 °C

Question: For `CCOC(=O)CCC(=O)c1ccc(CCN(CC=Cc2ccc(Cl)cc2)S(=O)(=O)c2ccc(Cl)cc2)cc1`, which melting point is on record?
Answer: 100 to 101 °C

Question: With `C=Cc1cc(Cl)cc2[nH]c(=O)c(-c3ccccc3)c(O)c12` as the molecule, how does the melting point read?
Answer: 240 to 244 °C

Question: Which melting point does the source give for `COC1(OC)CCN(c2nc3c(cc2F)C=C(C(=O)O)CN3c2ccc(F)cc2F)C1` here?
Answer: 205 to 206 °C

Question: Which melting point does the source give for `CCCCc1nc(C(=O)CC)c(C#N)[nH]1` here?
Answer: 84 to 85 °C

Question: With `COC(=O)CCCCNC(=O)C[C@H]1O[C@H](c2cccc(OC)c2OC)c2cc(Cl)ccc2N(CC(C)(C)CO)C1=O` as the molecule, how does the melting point read?
Answer: 84 to 85 °C

Question: Which melting point does the source give for `CNC(=O)Oc1ccc(NS(C)(=O)=O)c(C)c1` here?
Answer: 167 to 169 °C

Question: Which melting point does the source give for `COC(Cn1cncn1)(c1ccc(F)cc1F)C(F)(F)SCCO` (stereo unspecified) here?
Answer: 76 to 79 °C

Question: Which melting point does the source give for `Cc1cc(C(=S)CN=[N+]=[N-])ccc1O` here?
Answer: 124 to 129 °C

Question: Which melting point does the source give for `COC(=O)c1ccc(Cl)c(Cn2nc(C(F)(F)F)n(C)c2=O)c1Cl` here?
Answer: 109 °C

Question: Which melting point does the source give for `CS(=O)(=O)c1ccc(-n2cnc3ccc(-c4nnc(CCc5cccc(C(F)(F)F)c5)o4)cc32)cc1` here?
Answer: 204 to 205 °C

Question: Which melting point does the source give for `O=C(c1cc2ccccc2[nH]1)N1CCCCC1` here?
Answer: 213 to 214 °C

Question: Which melting point does the source give for `CC(=O)N1C(=O)N(COCc2ccccc2)C(=O)C12c1ccccc1NC(=O)N2C` (stereo unspecified) here?
Answer: 209 to 211 °C

Question: With `COc1cc(C(C)=O)ccc1OC(C)=O` as the molecule, how does the melting point read?
Answer: 58.7 °C

Question: With `NS(=O)(=O)c1cccc(-c2cc(-c3nc(-c4ccc(C(F)(F)F)cc4)cc(C(F)(F)F)n3)ccn2)c1` as the molecule, how does the melting point read?
Answer: 237 °C

Question: Which melting point does the source give for `CC12C=CC(=O)CC1CCC1C2CCC2(C)C(C(=O)NC3(C#N)CCCCC3)CCC12` (stereo unspecified) here?
Answer: 292 to 300 °C

Question: Which melting point does the source give for `CSc1nnc(-c2ccc3occ(-c4ccc(OC(F)(F)F)cc4)c3c2)o1` here?
Answer: 138 to 139 °C

Question: With `CSc1nc(Cl)c([N+](=O)[O-])c(N2CCS(=O)CC2)n1` as the molecule, how does the melting point read?
Answer: 176 to 178 °C

Question: With `CC(C)C[C@@H](OC(=O)c1cccnc1)C(=O)O` as the molecule, how does the melting point read?
Answer: 101 to 103 °C

Question: With `CCN(CC)CCCNC(=O)/C(=C/C=C/c1cc2ccccc2o1)OC` as the molecule, how does the melting point read?
Answer: 79 °C

Question: Which melting point does the source give for `CCn1cc(C(=O)O)c(=O)c2cc(F)c(N3CCN(O)CC3)c(F)c21` here?
Answer: 253 to 260 °C

Question: With `CC(C(=O)O)c1ccc(-c2ccccc2[N+](=O)[O-])cc1` (stereo unspecified) as the molecule, how does the melting point read?
Answer: 116 to 119 °C

Question: Which melting point does the source give for `CCCCCCCCCCCCCCCCNC(=O)CC#N` here?
Answer: 95.5 to 96.5 °C
